Where “and” joins values, the source holds several entries; their conditions need not be identical. Identical values can stand only once. Like-named read-outs stand apart in the source and are kept apart here.
What was measured:
C. parvum = settings: Fig 2A Tg_Pf_Cp EC50s; previously reported values, reference not visible in the shown part; cited from earlier work
[1] = test system: N. caninum expressing lacZ; test: Neospora caninum β-galactosidase assay; format: cell-based; settings: Neospora caninum
Description: β-galactosidase assays were conducted using tissue culture grade 96-well plates (TPP) containing confluent monolayers of HFF cells. A 10-point compound dilution series (2-fold) for each compound was generated as described above (2X concentration, 0.1% final DMSO). Growth of the N. caninum strain expressing lacZ was monitoring using a β-galactosidase (β-gal) assay as described in[21] with the following modifications. N. caninum lacZ expressing parasites (1 × 10^3) were added (in 100 μL volume) into 96-well plates containing HFF monolayers to reach final compound concentration (5.0 μM to 0.002 μM in 200 μL total volume). Plates were incubated at 37 °C, 5% CO2 for 72 h prior to completing β-gal assay as previously described[23],[27],[51]. Briefly, parasite containing monolayers were lysed with 1.0% Triton X-100 and β-gal activity determined by adding 1 mM chlorophenolred-β-D-galactopyranoside followed by monitoring absorption at 570 nm on a Cytation 3 multi-mode imager (BioTek), as described.

[2] = test system: T. gondii RHΔhxgprtΔku80 (RHΔΔ); test: Tachyzoite lytic assay, wild-type parent; format: cell-based, Toxoplasma gondii; settings: for % Parasite Growth: RHΔΔ; for EC50: Toxoplasma gondii
Description: Parasite growth on HFF monolayers was monitored using a 96-well plate-based lytic assay modified from a previously described protocol. […]. Freshly harvested parasites (7.5 × 10^4 /well) were added to each well (in 100uL volume) to reach the final concentration range (10 μM to 0.0005 μM, 200 μL/well, 0.1% DMSO). Plates were incubated for 72 h at 37 °C then culture medium was aspirated and monolayers were fixed with 100% ethanol (ETOH) for 5 min at room temperature (RT). After rinsing with water, wells were stained with 0.1% crystal violet solution for 10 min at RT. Plates were rinsed with water, air dried, and absorption quantified on the Cytation 3 multi-mode imager at 570 nm wavelength. % parasite growth was calculated as 100−[(OD value for infected cultures at each concentration of compound/average OD value for no compound and no parasite infection) × 100]. EC50 values were calculated based on the mean of three biological replicates with each replicate containing two technical replicates.

TgPheRS[V262A] = TgPheRS[V262A] (Toxoplasma gondii, UniProt A0A125YPN6, V262A); test: Enzyme assay, TgPheRS V262A; format: biochemical; settings: Table S4, V262A; read-out: IC50 (enzyme inhibition)
TgPheRS[M484I] = biological target: T1, TgPheRS[M484I] (Toxoplasma gondii, UniProt A0A125YPN6, M484I); test: Enzyme assay, TgPheRS M484I; format: biochemical; settings: for enzyme assay readout (raw): M484I
T1 sequence (A0A125YPN6 1-525 M484I): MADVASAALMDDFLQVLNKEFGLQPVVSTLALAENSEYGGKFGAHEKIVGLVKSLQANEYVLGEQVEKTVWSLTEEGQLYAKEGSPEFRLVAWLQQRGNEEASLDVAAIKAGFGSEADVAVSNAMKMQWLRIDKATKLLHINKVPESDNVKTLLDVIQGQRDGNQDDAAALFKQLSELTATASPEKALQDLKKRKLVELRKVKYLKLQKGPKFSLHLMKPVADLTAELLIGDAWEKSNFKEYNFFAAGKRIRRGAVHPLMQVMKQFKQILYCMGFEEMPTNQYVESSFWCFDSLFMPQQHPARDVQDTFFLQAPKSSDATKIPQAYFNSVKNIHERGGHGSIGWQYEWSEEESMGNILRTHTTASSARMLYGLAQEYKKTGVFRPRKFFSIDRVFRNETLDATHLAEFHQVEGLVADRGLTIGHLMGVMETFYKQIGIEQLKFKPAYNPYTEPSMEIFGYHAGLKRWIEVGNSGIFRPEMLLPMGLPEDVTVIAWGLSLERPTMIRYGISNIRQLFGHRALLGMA
T1 sequence (S8EZ50 1-675 partner): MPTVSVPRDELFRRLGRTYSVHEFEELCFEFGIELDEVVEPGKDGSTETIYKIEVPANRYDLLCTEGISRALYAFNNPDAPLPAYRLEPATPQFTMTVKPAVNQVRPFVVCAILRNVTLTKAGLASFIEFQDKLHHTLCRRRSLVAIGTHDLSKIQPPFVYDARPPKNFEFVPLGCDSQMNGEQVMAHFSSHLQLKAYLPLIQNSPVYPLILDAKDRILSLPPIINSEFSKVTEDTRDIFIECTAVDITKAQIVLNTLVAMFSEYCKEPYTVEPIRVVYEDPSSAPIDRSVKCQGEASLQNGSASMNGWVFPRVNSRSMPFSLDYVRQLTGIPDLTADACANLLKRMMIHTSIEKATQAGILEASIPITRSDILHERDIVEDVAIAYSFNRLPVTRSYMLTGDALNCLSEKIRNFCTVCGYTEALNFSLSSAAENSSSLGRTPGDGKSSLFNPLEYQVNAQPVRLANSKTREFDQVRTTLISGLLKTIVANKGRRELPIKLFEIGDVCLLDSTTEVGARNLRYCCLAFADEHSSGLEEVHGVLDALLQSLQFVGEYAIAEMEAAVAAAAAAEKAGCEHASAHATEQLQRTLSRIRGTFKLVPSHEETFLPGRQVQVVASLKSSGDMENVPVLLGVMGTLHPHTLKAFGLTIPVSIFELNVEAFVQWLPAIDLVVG

Structure (SMILES)	EC50 (C. parvum) [µM]	EC50 ([1]; Table S3, 72 h, lacZ, read-out: N. caninum EC50) [µM]	EC50 ([1]; read-out: N. caninum (EC50, Fig S2 source data)) [µM]	% Parasite Growth ([2]; 3.33333333 uM, replicate wells)	% Parasite Growth ([2]; 0.00152416 uM)	% Parasite Growth ([2]; 0.00457247 uM)	% Parasite Growth ([2]; 0.01371742 uM)	EC50 ([2]; 72 h, read-out: EC50, RHΔΔ) [µM]	EC50 ([2]; read-out: EC50, RHΔΔ) [µM]	EC50 ([2]; Table S4, Wild type, read-out: EC50 (growth restriction)) [µM]	IC50 (TgPheRS[V262A]) [µM]	enzyme assay readout (raw) (TgPheRS[M484I]; 0.000050 μM)	enzyme assay readout (raw) (TgPheRS[M484I]; 0.000500 μM)	enzyme assay readout (raw) (TgPheRS[M484I]; 0.005000 μM)	enzyme assay readout (raw) (TgPheRS[M484I]; 0.050000 μM)	enzyme assay readout (raw) (TgPheRS[M484I]; 0.500000 μM)	enzyme assay readout (raw) (TgPheRS[M484I]; 5.000000 μM)	enzyme assay readout (raw) (TgPheRS[M484I]; 50.000000 μM)	IC50 (TgPheRS[M484I]; Table S4, M484I, read-out: IC50 (enzyme inhibition)) [µM]
COc1ccc(NC(=O)N2CCCCN3[C@H](CO)[C@H](c4ccc(C#Cc5ccccc5)cc4)[C@@H]3C2)cc1 [BRD3444]	0.015																		
COc1ccc(NC(=O)N2CCCCN3[C@H](CN(C)C)[C@H](c4ccc(C#Cc5ccccc5)cc4)[C@@H]3C2)cc1 [BRD7929]		0.042	0.0424	-62.34% and -8.91% and -41.4% and -6.78% and -65.46% and -56.23% and -31.38% and -99.25% and -132.9% and -155.42% and -68.19% and -11.78%	68.94% and 89.11% and 79.46% and 70.31% and 60.77%	84.64% and 87.57% and 82.22% and 46.33% and 48.4%	76.37% and 86.87% and 80.22% and 58.24% and 60.43%	0.082	0.053	0.036	0.207	0.2597 and 0.2568 and 0.2561	0.2555 and 0.2526 and 0.2544	0.2503 and 0.2478 and 0.2487	0.2472 and 0.2441 and 0.2410	0.2388 and 0.2402 and 0.2378	0.2341 and 0.2345 and 0.2337	0.2266 and 0.2241	0.135
